Experimental data from patent publication US20110015067A1, “Herbicidal Compositions Comprising Pyroxasulfone” (BASF SE, priority 2008, published 2011).

How the values were obtained:
Type in all cases: in vivo
[1] = test system: CHEAL (Chenopodium album); assay: post-emergence greenhouse test; conditions: 15 g ai/ha
From the text: (§1) For the post-emergence treatment, the test plants were first grown to a height of 3 to 20 cm, depending on the plant habit, and only then treated. Here, the herbicidal compositions were suspended or emulsified in water as distribution medium and sprayed using finely distributing nozzles.
(§2) The respective herbicides A and/or safener were formulated as 10% by weight strength suspension concentrate and introduced to the spray liquor with the amount of solvent system used for applying the active compound. Herbicide B and/or safener were used as commercially available formulations and introduced to the spray liquor with the amount of solvent system used for applying the active compound. In the examples, the solvent used was water.
(§3) The test period extended over 20 days. During this time, the plants were tended, and their response to the treatments with active compound was evaluated.
(§4) In the following experiments, the herbicidal activity for the individual herbicide compounds (solo application) and of the mixture was assessed 8 days after treatment (8 DAT) and/or 20 days after treatment (20 DAT).
(§5) The evaluation for the damage caused by the chemical compositions was carried out using a scale from 0 to 100%, compared to the untreated control plants. Here, 0 means no damage and 100 means complete destruction of the plants.

[2] = test system: ALOMY (Alopecurus myosuroides); assay: post-emergence greenhouse test; conditions: 3.75 g ai/ha
From the text: as §1, §2, §3, §4, §5

[3] = test system: MERAN (Mercurialis annua); assay: post-emergence greenhouse test; conditions: 7.5 g ai/ha
From the text: as §1, §2, §3, §4, §5

[4] = test system: PHBPU (Ipomoea purpurea); assay: pre-emergence greenhouse test; conditions: for observed activity in % destruction: pre-emergence, 3.75 g ai/ha
From the text: (§6) For the pre-emergence treatment, directly after sowing the active compounds, which had been suspended or emulsified in water, were applied by means of finely distributed nozzles. The containers were irrigated gently to promote germination and growth and subsequently covered with transparent plastic hoods until plant had rooted. This cover caused uniform germination of the tests plants, unless this was adversely affected by active compounds.
as §2, §3, §4, §5

[5] = test system: ABUTH (Abutilon theophrasti); assay: pre-emergence greenhouse test; conditions: pre-emergence, 7.5 g ai/ha
From the text: as §6, §2, §3, §4, §5

[6] = test system: PANDI (Panicum dichotomiflorum); assay: pre-emergence greenhouse test; conditions: pre-emergence
From the text: as §6, §2, §3, §4, §5

[7] = test system: ECHCG (Echinochloa crus-galli); assay: pre-emergence greenhouse test; conditions: for observed activity in % destruction: pre-emergence
From the text: as §6, §2, §3, §4, §5

[8] = test system: BRAPL (Brachiaria plantaginea); assay: pre-emergence greenhouse test; conditions: for observed activity in % destruction: pre-emergence, 15 g ai/ha
From the text: as §6, §2, §3, §4, §5

[9] = test system: COMBE (Commelina benghalensis); assay: pre-emergence greenhouse test; conditions: for observed activity in % destruction: pre-emergence
From the text: as §6, §2, §3, §4, §5

[10] = test system: ALOMY (Alopecurus myosuroides); assay: pre-emergence greenhouse test; conditions: for observed activity in % destruction: pre-emergence, 15 g ai/ha
From the text: as §6, §2, §3, §4, §5

[11] = test system: LOLMU (Lolium multiflorum); assay: pre-emergence greenhouse test; conditions: for observed activity in % destruction: pre-emergence
From the text: as §6, §2, §3, §4, §5

[12] = test system: SETVI (Setaria viridis); assay: pre-emergence greenhouse test
From the text: as §6, §2, §3, §4, §5

[13] = test system: AMARE (Amaranthus retroflexus); assay: pre-emergence greenhouse test; conditions: pre-emergence
From the text: as §6, §2, §3, §4, §5

[14] = test system: ERBVI; assay: pre-emergence greenhouse test; conditions: ERBVI pre-emergence 15 g ai/ha
From the text: as §6, §2, §3, §4, §5

[15] = test system: SOLNI (Solanum nigrum); assay: pre-emergence greenhouse test; conditions: for observed activity in % destruction: pre-emergence
From the text: as §6, §2, §3, §4, §5

Compound: Cc1cnc(C2=NC(=O)C(C)(C(C)C)N2)c(C(=O)O)c1 (stereo not drawn) [imazapic]
- observed activity in % destruction ([1]; 8 DAT): 20%
- observed activity in % destruction ([1]; 20 DAT): 30%
- observed activity in % destruction ([2]; 8 DAT): 35%
- observed activity in % destruction ([2]; 20 DAT): 30%
- observed activity in % destruction ([3]; 8 DAT): 20%
- observed activity in % destruction ([3]; 20 DAT): 0%
- observed % destruction 20 DAT ([4]; PHBPU pre-emergence 3.75 g ai/ha): 25%
- observed activity in % destruction ([4]; 8 DAT): 30%
- observed activity in % destruction ([4]; 20 DAT): 25%
- observed activity in % destruction ([5]; 8 DAT): 20%
- observed activity in % destruction ([5]; 20 DAT): 75%
- observed activity in % destruction ([6]; 3.75 g ai/ha, 8 DAT): 0%
- observed activity in % destruction ([6]; 3.75 g ai/ha, 20 DAT): 80%
- observed activity in % destruction ([6]; 7.5 g ai/ha, 8 DAT): 30%
- observed activity in % destruction ([6]; 7.5 g ai/ha, 20 DAT): 90%
- observed activity in % destruction ([6]; 15 g ai/ha, 8 DAT): 50%
- observed activity in % destruction ([6]; 15 g ai/ha, 20 DAT): 95%
- observed % destruction 20 DAT ([7]; ECHCG pre-emergence 7.5 g ai/ha): 60%
- observed % destruction 20 DAT ([7]; ECHCG pre-emergence 15 g ai/ha): 90%
- observed activity in % destruction ([7]; 7.5 g ai/ha, 8 DAT): 30%
- observed activity in % destruction ([7]; 7.5 g ai/ha, 20 DAT): 60%
- observed activity in % destruction ([7]; 15 g ai/ha, 8 DAT): 65%
- observed activity in % destruction ([7]; 15 g ai/ha, 20 DAT): 90%
- observed % destruction 20 DAT ([8]; BRAPL pre-emergence 15 g ai/ha): 85%
- observed activity in % destruction ([8]; 8 DAT): 30%
- observed activity in % destruction ([8]; 20 DAT): 85%
- observed % destruction 20 DAT ([9]; COMBE pre-emergence 3.75 g ai/ha): 30%
- observed % destruction 20 DAT ([9]; COMBE pre-emergence 7.5 g ai/ha): 40%
- observed activity in % destruction ([9]; 3.75 g ai/ha, 8 DAT): 0%
- observed activity in % destruction ([9]; 3.75 g ai/ha, 20 DAT): 30%
- observed activity in % destruction ([9]; 7.5 g ai/ha, 8 DAT): 20%
- observed activity in % destruction ([9]; 7.5 g ai/ha, 20 DAT): 40%
- observed % destruction 20 DAT ([10]; ALOMY pre-emergence 15 g ai/ha): 80%
- observed activity in % destruction ([10]; 8 DAT): 40%
- observed activity in % destruction ([10]; 20 DAT): 80%
- observed % destruction 20 DAT ([11]; LOLMU pre-emergence 3.75 g ai/ha): 40%
- observed % destruction 20 DAT ([11]; LOLMU pre-emergence 7.5 g ai/ha): 45%
- observed % destruction 20 DAT ([11]; LOLMU pre-emergence 15 g ai/ha): 65%
- observed activity in % destruction ([11]; 3.75 g ai/ha, 8 DAT): 0%
- observed activity in % destruction ([11]; 3.75 g ai/ha, 20 DAT): 40%
- observed activity in % destruction ([11]; 7.5 g ai/ha, 8 DAT): 0%
- observed activity in % destruction ([11]; 7.5 g ai/ha, 20 DAT): 45%
- observed activity in % destruction ([11]; 15 g ai/ha, 8 DAT): 30%
- observed activity in % destruction ([11]; 15 g ai/ha, 20 DAT): 65%
- observed % destruction 20 DAT ([12]; SETVI pre-emergence 3.75 g ai/ha): 75%
- observed % destruction 20 DAT ([12]; SETVI pre-emergence 7.5 g ai/ha): 90%
- observed % destruction 20 DAT ([12]; SETVI pre-emergence 15 g ai/ha): 95%
- observed activity in % destruction ([13]; 3.75 g ai/ha, 8 DAT): 30%
- observed activity in % destruction ([13]; 3.75 g ai/ha, 20 DAT): 55%
- observed activity in % destruction ([13]; 7.5 g ai/ha, 8 DAT): 50%
- observed activity in % destruction ([13]; 7.5 g ai/ha, 20 DAT): 75%
- observed activity in % destruction ([13]; 15 g ai/ha, 8 DAT): 50%
- observed activity in % destruction ([13]; 15 g ai/ha, 20 DAT): 90%
- observed % destruction 20 DAT [14]: 65%
- observed % destruction 20 DAT ([15]; SOLNI pre-emergence 3.75 g ai/ha): 70%
- observed % destruction 20 DAT ([15]; SOLNI pre-emergence 7.5 g ai/ha): 85%
- observed % destruction 20 DAT ([15]; SOLNI pre-emergence 15 g ai/ha): 90%
- observed activity in % destruction ([15]; 3.75 g ai/ha, 8 DAT): 20%
- observed activity in % destruction ([15]; 3.75 g ai/ha, 20 DAT): 70%
- observed activity in % destruction ([15]; 7.5 g ai/ha, 8 DAT): 40%
- observed activity in % destruction ([15]; 7.5 g ai/ha, 20 DAT): 85%
- observed activity in % destruction ([15]; 15 g ai/ha, 8 DAT): 50%
- observed activity in % destruction ([15]; 15 g ai/ha, 20 DAT): 90%
